Measured values published in ChEMBL document CHEMBL5257153, “Oxazolidinones as versatile scaffolds in medicinal chemistry” (RSC Med Chem, 2023).
In brackets after ≈: the same amount, converted by molar mass.

How the values were obtained:
HepG2 [1] = test: Anticancer activity against human HepG2 assessed as IL-6 induced luciferase activity; format: functional, cell-based
HepG2 [2] = test: Anticancer activity against human HepG2 assessed as IL-6 induced luciferase activity at 50 uM relative to control; format: functional
TF-1 = test: Anticancer activity against human TF-1 cells assessed as cell growth inhibition; format: functional, cell-based
[3] = system: Mycobacterium tuberculosis; test: Antimycobacterial activity against Mycobacterium tuberculosis H37Rv strain assessed as bacterial growth inhibition by Microplate amar blue assay; format: functional
Kallikrein-6 = Kallikrein-6 (Homo sapiens, UniProt Q92876); test: Inhibition of KLK6 (unknown origin)
[4] = system: Mycobacterium tuberculosis; test: Antimycobacterial activity against Mycobacterium tuberculosis assessed as bacterial growth inhibition; format: functional
[5] = system: Mycobacterium tuberculosis; test: Antimycobacterial activity against Mycobacterium tuberculosis H37Rv strain assessed as bacterial growth inhibition incubated for 18 to 24 hrs; format: functional; conditions: time 18-24 hrs
[6] = biological target: Aldo-keto reductase family 1 member B1 (Homo sapiens, UniProt P15121); test: Inhibition of […] (unknown origin)
Metaphire posthuma [7] = test: Anti-helmintic activity at Metaphire posthuma assessed as time of survival; format: functional
Metaphire posthuma [8] = test: Anti-helmintic activity at Metaphire posthuma assessed as paralysis induction time; format: functional
[9] = Toxicity in mouse; format: organism-based; conditions: in vivo
Rattus norvegicus = species: Rattus norvegicus; test: Anticonvulsant activity in rat; format: functional
Mus musculus = species: Mus musculus; test: Anticonvulsant activity in mouse; format: functional
Clostridioides difficile [10] = test: In vivo Antibacterial activity against Clostridium difficile infected in hamster assessed as survival at 50 mg/kg, sc relative to control; format: functional
[11] = biological target: T1, Acyl-CoA (8-3)-desaturase (Homo sapiens, UniProt O60427); test: Inhibition of human Delta 5 desaturase (unknown origin) expressed in human HepG2 cells; format: cell-based
Target sequence in this assay (O60427 whole entry): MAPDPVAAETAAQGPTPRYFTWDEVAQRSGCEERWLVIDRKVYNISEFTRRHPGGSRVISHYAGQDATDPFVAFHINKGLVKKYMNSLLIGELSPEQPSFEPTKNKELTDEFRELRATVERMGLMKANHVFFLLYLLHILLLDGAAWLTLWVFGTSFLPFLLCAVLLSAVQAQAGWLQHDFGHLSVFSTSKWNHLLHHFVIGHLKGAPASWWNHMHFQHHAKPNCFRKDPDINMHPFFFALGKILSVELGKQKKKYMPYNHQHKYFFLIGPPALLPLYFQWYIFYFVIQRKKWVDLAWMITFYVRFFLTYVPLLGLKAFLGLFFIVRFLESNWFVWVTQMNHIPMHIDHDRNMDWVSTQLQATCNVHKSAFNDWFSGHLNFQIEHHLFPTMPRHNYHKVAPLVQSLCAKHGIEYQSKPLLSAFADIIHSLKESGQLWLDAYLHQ

[12] = biological target: T1, Acyl-CoA (8-3)-desaturase; test: In vivo inhibition of human Delta 5 desaturase in C57BL/6J mouse at 3 mg/kg, po relative to control; format: organism-based
Target sequence in this assay (O60427 whole entry, looked up): as the sequence (O60427 whole entry) above

[13] = biological target: T1, Acyl-CoA (8-3)-desaturase; test: In vivo inhibition of human Delta 5 desaturase in atherosclerosis mouse model at 3 mg/kg, po relative to control; format: organism-based
Target sequence in this assay (O60427 whole entry, looked up): as the sequence (O60427 whole entry) above

Staphylococcus aureus [14] = test: Antibacterial activity against methicillin resistant Staphylococcus aureus assessed as bacterial growth inhibition incubated for 18 hrs; format: functional
L02 [15] = test: Anticancer activity against human L02 cells assessed as cell growth inhibition incubated for 48 hrs by MTT assay; format: functional, cell-based; conditions: L02, 48 h
Staphylococcus aureus [16] = test: Antibacterial activity against methicillin sensitive Staphylococcus aureus assessed as bacterial growth inhibition incubated for 18 hrs; format: functional
HEK293 = test: Anticancer activity against HEK293 cells assessed as cell growth inhibition incubated for 48 hrs by MTT assay; format: functional, cell-based; conditions: Homo sapiens, HEK293, 48 h
HeLa = test: Anticancer activity against human HeLa cells assessed as cell growth inhibition incubated for 72 hrs by MTT assay; format: functional, cell-based
MCF7 = test: Anticancer activity against human MCF7 cells assessed as cell growth inhibition incubated for 72 hrs by MTT assay; format: functional, cell-based; conditions: MCF7, 72 h
[17] = Inhibition of human LTB4
[18] = Inhibition of human LTC4
Enterococcus faecalis = test: Antibacterial activity against Linezolid resistant Enterococcus faecalis assessed as bacterial growth inhibition incubated for 24 hrs; format: functional
Enterococcus faecium = test: Antibacterial activity against Linezolid resistant Enterococcus faecium assessed as bacterial growth inhibition incubated for 24 hrs; format: functional
Staphylococcus aureus [19] = test: Antibacterial activity against Staphylococcus aureus assessed as bacterial growth inhibition incubated for 24 hrs; format: functional
[20] = AUClast in Sprague-Dawley rat at 15 mg/kg, iv by HPLCLC-MS/MS analysis; format: ADME, organism-based; parameters: dose 15 mg/kg, route iv; conditions: in vivo
Clostridioides difficile [21] = test: Antibacterial activity against Clostridium difficile 2004118 strain assessed as bacterial growth inhibition incubated for 48 hrs by agar dilution method; format: functional
Clostridioides difficile [22] = test: Antibacterial activity against Clostridium difficile ATCC 43596 strain assessed as bacterial growth inhibition incubated for 48 hrs by agar dilution method; format: functional
Clostridioides difficile [23] = test: Antibacterial activity against Clostridium difficile NCTC 11223 strain assessed as bacterial growth inhibition incubated for 48 hrs by agar dilution method; format: functional
Clostridioides difficile [24] = test: Antibacterial activity against Clostridium difficile ATCC 43255 strain assessed as bacterial growth inhibition incubated for 48 hrs by agar dilution method; format: functional
Clostridioides difficile [25] = test: Antibacterial activity against Clostridium difficile NAP1/027/BI-type strain 2009155 assessed as bacterial growth inhibition incubated for 48 hrs by agar dilution method; format: functional
Alpha glucosidase = Alpha glucosidase (Homo sapiens, UniProt O43451+P10253+P14410+Q2M2H8); test: Inhibition of human alpha glucosidase; format: protein assay
Carbonic anhydrase 1 = Carbonic anhydrase 1 (Homo sapiens, UniProt P00915); test: Inhibition of human CA1
Chain of Carbonic anhydrase 1 (P00915 whole entry): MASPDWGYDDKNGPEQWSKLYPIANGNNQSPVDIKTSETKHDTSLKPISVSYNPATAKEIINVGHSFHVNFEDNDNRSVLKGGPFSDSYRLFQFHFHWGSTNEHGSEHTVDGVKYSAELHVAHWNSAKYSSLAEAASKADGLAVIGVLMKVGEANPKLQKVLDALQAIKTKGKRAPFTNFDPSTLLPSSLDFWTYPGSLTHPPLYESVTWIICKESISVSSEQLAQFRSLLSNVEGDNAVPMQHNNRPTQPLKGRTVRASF

Acetylcholinesterase = Acetylcholinesterase (Homo sapiens, UniProt P22303); test: Inhibition of human AchE
Chain of Acetylcholinesterase (P22303 whole entry): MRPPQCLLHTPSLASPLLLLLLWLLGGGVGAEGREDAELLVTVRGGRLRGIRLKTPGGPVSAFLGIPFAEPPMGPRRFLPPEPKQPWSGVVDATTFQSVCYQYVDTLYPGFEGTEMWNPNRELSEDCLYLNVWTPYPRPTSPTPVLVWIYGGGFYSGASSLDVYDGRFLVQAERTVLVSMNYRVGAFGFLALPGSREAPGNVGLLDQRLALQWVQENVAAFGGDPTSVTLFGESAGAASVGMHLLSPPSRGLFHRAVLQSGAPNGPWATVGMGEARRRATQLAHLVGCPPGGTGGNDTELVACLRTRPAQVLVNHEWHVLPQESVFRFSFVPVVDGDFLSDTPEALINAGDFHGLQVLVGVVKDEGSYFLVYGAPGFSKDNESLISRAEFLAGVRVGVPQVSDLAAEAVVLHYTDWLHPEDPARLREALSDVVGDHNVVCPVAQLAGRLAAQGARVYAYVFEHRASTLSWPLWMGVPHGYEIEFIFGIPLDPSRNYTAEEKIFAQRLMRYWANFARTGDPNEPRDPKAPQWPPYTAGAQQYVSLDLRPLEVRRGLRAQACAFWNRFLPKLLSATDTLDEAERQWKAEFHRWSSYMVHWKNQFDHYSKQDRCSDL

Carbonic anhydrase 2 = Carbonic anhydrase 2 (Homo sapiens, UniProt P00918); test: Inhibition of human CA2
[26] = system: Mycobacterium tuberculosis; test: Antimycobacterial activity against Mycobacterium tuberculosis H37Rv strain assessed as bacterial growth inhibition incubated for 48 hrs by Microplate amar blue assay; format: functional
CNE-2 = test: Anticancer activity against human CNE-2 cells assessed as cell growth inhibition incubated for 48 hrs by MTT assay; format: functional, cell-based; conditions: CNE-2, 48 h
MGC-803 = test: Anticancer activity against human MGC-803 cells assessed as cell growth inhibition incubated for 48 hrs by MTT assay; format: functional, cell-based; conditions: MGC-803, 48 h
L02 [27] = test: Cytotoxicity against human L02 cells assessed as cell growth inhibition incubated for 48 hrs by MTT assay; format: functional, cell-based; conditions: L02, 48 h
SK-OV-3 = test: Anticancer activity against human SK-OV-3 cells assessed as cell growth inhibition incubated for 48 hrs by MTT assay; format: functional, cell-based; conditions: SK-OV-3, 48 h
NCI-H460 = test: Anticancer activity against human NCI-H460 cells assessed as cell growth inhibition incubated for 48 hrs by MTT assay; format: functional, cell-based; conditions: NCI-H460, 48 h
[28] = system: Mycolicibacterium fortuitum; test: Antibacterial activity against Mycobacterium fortuitum assessed as bacterial growth inhibition; format: functional
Mycobacteroides chelonae = test: Antibacterial activity against Mycobacteroides chelonae assessed as bacterial growth inhibition; format: functional
Mycobacterium kansasii = test: Antibacterial activity against Mycobacterium kansasii assessed as bacterial growth inhibition; format: functional
[29] = Metabolic stability in mouse microsomes assessed as half life; format: ADME, Microsome
[30] = Metabolic stability in human microsomes assessed as half life; format: ADME, Microsome
[31] = Metabolic stability in mouse microsomes assessed as intrinsic clearance; format: ADME, Microsome
[32] = Metabolic stability in human microsomes assessed as intrinsic clearance; format: ADME, Microsome

SMILES: C=C(CCCCC)[C@@H](O)[C@H](C)C(=O)N1C(=O)OC[C@@H]1C(C)C
- IC50 (HepG2 [1]): 5.9 µM
- inhibition at 50 µM (HepG2 [2]): 90%
- IC50 (TF-1): 7.5 µM

SMILES: O=C1CC2CN(c3ccc(N4C[C@H](Cn5ccnn5)OC4=O)cc3F)CC2C1 (some centres undefined)
- MIC90 [3]: 1.2 µM

SMILES: COc1ccccc1-c1ccc([C@H](C)Nc2cncc(N3C(=O)OC[C@@H]3C(C)C)n2)cc1
- IC50 (Kallikrein-6): 0.00251 µM

SMILES: CC(C)C[C@@H](NC(=O)OC1c2ccccc2-c2ccccc21)C(=O)N[C@@H](Cc1ccccc1)[C@H]1CN(c2ccc(N3CCOCC3)c(F)c2)C(=O)O1
- MIC90 [4]: 2.6 µM (≈ 1.84 µg/mL)

SMILES: O=C(NCC(=O)N1CCN(c2ccc(N3C[C@H](Cn4ccnn4)OC3=O)cc2F)CC1)c1ccc([N+](=O)[O-])o1
- MIC90 [5]: 0.9 µM (≈ 0.488 µg/mL)

SMILES: COc1ccc(C2CC3(CN(CC(=O)O)C(=O)O3)c3cc(Br)ccc3O2)cc1 (centres undefined)
- IC50 [6]: 0.65 µM

SMILES: CCOc1nc(-c2ccc(N3C[C@H](CNC(C)=O)OC3=O)cc2F)cs1
- MIC90 [4]: 2.6 µM (≈ 0.986 µg/mL)

SMILES: O=C(OC[C@H]1CN(c2ccc(N3CCOCC3)nc2)C(=O)O1)C1CCCCC1
- Survival (Metaphire posthuma [7]): 8.1 min
- Time (Metaphire posthuma [8]): 3.6 min

SMILES: O=C(NCC(=O)N1CCN(c2ccc(N3C[C@H](Cn4ccnn4)OC3=O)cc2F)CC1)c1cccs1
- TD50 [9]: > 500 mg/kg
- ED50 (Rattus norvegicus): 34.5 mg/kg
- ED50 (Mus musculus): 90 mg/kg

SMILES: CN[C@H](CC(C)C)C(=O)N[C@H]1C(=O)N[C@@H](CC(N)=O)C(=O)N[C@H]2C(=O)N[C@H]3C(=O)N[C@H](C(=O)N[C@H](C(=O)O)c4cc(O)cc(O)c4-c4cc3ccc4O)[C@H](O)c3ccc(c(Cl)c3)Oc3cc2cc(c3O[C@@H]2O[C@H](CO)[C@@H](O)[C@H](O)[C@H]2O[C@H]2C[C@](C)(N)[C@H](O)[C@H](C)O2)Oc2ccc(cc2Cl)[C@H]1O [VANCOMYCIN]
- survival at 50 mg/kg (Clostridioides difficile [10]): 50%

SMILES: CC(=O)NC[C@H]1CN(c2ccc(-c3ccc(-c4csc(N)n4)cc3)c(F)c2)C(=O)O1
- MIC90 [4]: 0.9 µM (≈ 0.384 µg/mL)

SMILES: C[C@@H]1[C@@H](c2ccc(F)cc2)OC(=O)N1c1cc(C#N)cc(C#N)c1
- IC50 [11]: 0.0015 µM
- inhibition [12]: 74%
- inhibition [13]: 66%

SMILES: CC(=O)NC[C@H]1CN(c2ccc(-n3cc(-c4ccccn4)cn3)c(F)c2)C(=O)O1
- MIC (Staphylococcus aureus [14]): 0.5 µg/mL (≈ 1.26 µM)
- IC50 (L02 [15]): 50 µM
- MIC (Staphylococcus aureus [16]): 1 µg/mL (≈ 2.53 µM)
- IC50 (HEK293): > 25 µM

SMILES: CCN(CC)C(=O)/C=C1/OC(=O)N(Cc2ccccc2)C1(C)C
- IC50 (HeLa): 17.7 µM
- IC50 (MCF7): 31.1 µM

SMILES: CCCCCCC(=O)N(O)C[C@H]1CN(c2ccc(N3CCOCC3)c(F)c2)C(=O)O1
- IC50 [17]: 0.7 µM
- IC50 [18]: 0.9 µM

SMILES: Cc1ncc([N+](=O)[O-])n1CCO [METRONIDAZOLE]
- survival at 50 mg/kg (Clostridioides difficile [10]): 0%

SMILES: O=C(CO)N1CCN(c2ccc(-c3ccc(N4C[C@H](Cn5ccnn5)OC4=O)cc3F)cn2)C=N1
- MIC (Enterococcus faecalis): < 2 µg/mL
- MIC (Enterococcus faecium): < 2 µg/mL
- MIC (Staphylococcus aureus [19]): < 2 µg/mL
- AUClast [20]: 85 mg/h/L

SMILES: CC(=O)NC[C@H]1CN(c2ccc(-c3cnc(-n4cncn4)nc3)c(F)c2)C(=O)O1
- MIC90 (Clostridioides difficile [21]): 0.25 µg/mL (≈ 0.629 µM)
- MIC90 (Clostridioides difficile [22]): 0.25 µg/mL (≈ 0.629 µM)
- MIC90 (Clostridioides difficile [23]): 0.25 µg/mL (≈ 0.629 µM)
- MIC90 (Clostridioides difficile [24]): 0.25 µg/mL (≈ 0.629 µM)
- MIC90 (Clostridioides difficile [25]): 0.25 µg/mL (≈ 0.629 µM)
- survival at 50 mg/kg (Clostridioides difficile [10]): 100%

SMILES: CC1(C)O[C@@H]2[C@@H](O)[C@H]3NC(=O)O[C@H]3C[C@@H]2O1
- IC50 (Alpha glucosidase): 30.5 µM
- IC50 (Carbonic anhydrase 1): 45.6 µM
- IC50 (Acetylcholinesterase): 58.7 µM
- IC50 (Carbonic anhydrase 2): 24.8 µM

SMILES: O=C1O[C@@H](Cn2ccnn2)CN1c1ccc(N2CCOCC2)c(F)c1
- MIC90 [26]: 1.3 µM (≈ 0.452 µg/mL)

SMILES: CC(=O)NC[C@H]1CN(c2ccc(N3C[C@H]4C[C@@H](O)C[C@H]4C3)c(F)c2)C(=O)O1
- MIC90 [3]: 0.6 µM

SMILES: CC(C)c1ccc2c(c1)CCC1[C@](C)(C(=O)OCC3CN(c4ccc(F)cc4)C(=O)O3)CCC[C@]21C (some centres undefined)
- IC50 (CNE-2): 3.82 µM
- IC50 (MGC-803): 3.82 µM
- IC50 (L02 [27]): > 100 µM
- IC50 (SK-OV-3): 3.82 µM
- IC50 (NCI-H460): 3.82 µM

SMILES: CC(=O)NC[C@H]1CN(c2ccc(N3CCN(c4ccc5nccn5n4)CC3)c(F)c2)C(=O)O1
- MIC90 [28]: 8 µM (≈ 3.63 µg/mL)
- MIC90 [4]: 1.1 µM (≈ 0.499 µg/mL)
- MIC90 (Mycobacteroides chelonae): 8 µM (≈ 3.63 µg/mL)
- MIC90 (Mycobacterium kansasii): 1 µM (≈ 0.453 µg/mL)

SMILES: COc1cc(COc2ccccc2C2(C)CN(CC(=O)O)C(=O)O2)cc(OC)c1OC (centres undefined)
- IC50 [6]: 3.19 µM

SMILES: CC[C@H](NC(=O)[C@H]1CN(c2ccc(C(=N)N)cc2)C(=O)O1)c1cccc2ccccc12
- half-life [29]: > 3 h
- half-life [30]: > 3 h
- CLH [31]: 2.4 mL/min/g
- CLH [32]: 3.1 mL/min/g

SMILES: O=C(COP(=O)(O)O)N1CCN(c2ccc(-c3ccc(N4C[C@H](Cn5ccnn5)OC4=O)cc3F)cn2)C=N1
- AUClast [20]: 5.08 mg/h/L
